The results in this text go back to patent US20130116241A1, “NOVEL INHIBITOR COMPOUNDS OF PHOSPHODIESTERASE TYPE 10A” (AbbVie Inc., priority 2011, published 2013).

Counter-ions that a name gives are not always drawn.

Chain of human PDE10A (Q9Y233 290-1055 limits assumed): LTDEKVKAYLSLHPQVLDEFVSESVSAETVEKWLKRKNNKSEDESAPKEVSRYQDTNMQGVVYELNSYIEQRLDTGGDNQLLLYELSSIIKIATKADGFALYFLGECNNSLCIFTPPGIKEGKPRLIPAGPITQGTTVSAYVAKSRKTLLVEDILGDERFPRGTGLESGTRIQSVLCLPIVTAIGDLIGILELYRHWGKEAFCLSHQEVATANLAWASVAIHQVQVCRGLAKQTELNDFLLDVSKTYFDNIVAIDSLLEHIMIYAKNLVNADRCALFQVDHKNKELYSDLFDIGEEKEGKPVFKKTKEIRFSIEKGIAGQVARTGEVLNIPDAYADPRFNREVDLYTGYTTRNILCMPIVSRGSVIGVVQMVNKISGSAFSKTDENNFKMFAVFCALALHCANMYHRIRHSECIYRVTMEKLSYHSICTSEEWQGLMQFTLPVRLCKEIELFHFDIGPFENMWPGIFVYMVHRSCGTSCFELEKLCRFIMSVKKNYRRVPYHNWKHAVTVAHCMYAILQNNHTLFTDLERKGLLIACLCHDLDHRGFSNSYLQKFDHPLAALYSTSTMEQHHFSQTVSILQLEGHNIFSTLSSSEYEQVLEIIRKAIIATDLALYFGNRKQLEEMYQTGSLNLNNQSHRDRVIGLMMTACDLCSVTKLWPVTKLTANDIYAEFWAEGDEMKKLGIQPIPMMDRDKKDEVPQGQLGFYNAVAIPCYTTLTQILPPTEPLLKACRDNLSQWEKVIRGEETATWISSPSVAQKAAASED

In this experiment the target is human PDE10A (UniProt Q9Y233). The experiment can be described thus: Measurement of PDE activity (recombinant enzyme, HTRF cAMP kit). It is filed as biochemical. As to conditions: Table 1, substrate 20 nM for PDE10, 60 minutes at 29 C, read-out: IC50. The procedure:
The recombinant PDE proteins are used in in vitro enzymatic reaction for measurement of PDE activity. These recombinant proteins, including PDE10A (human, rat and mouse PDE10) and isoforms of PDEs 1, 3, 4, and 5, were purchased from commercial vendor BPS Bioscience. The enzymatic activity of PDEs was determined by cAMP measurement kit from CisBio (IBA) using HTRF technology.
The PDE enzymatic reaction was carried out in assay buffer (20 mM Tris-HCl pH7.5, 10 mM MgCl2, 0.1% bovine serum albumin) containing enzyme and substrate. The PDE enzymes concentration ranged from 10 pM-250 pM, depending on each enzyme's specific activity. The substrate cyclic nucleotide (cAMP or cGMP) concentration used in the assay was 20 nM for PDE10, and 100 nM for other PDEs. The inhibitory effect of compound was determined by incubating various concentration of inhibitor in the enzymatic assay. Typically, compound was serial diluted in DMSO then further diluted in assay buffer. Next, the compound at varying concentration was mixed with PDE enzyme. The reaction was initiated by addition of cyclic nucleotide substrate, and incubated for 60 minutes at 29 C. The reaction was stopped by addition of lysis buffer from assay kit. The cAMP-d2 and anti-cAMP cryptate in the lysis buffer detected the level of cAMP left from the PDE hydrolysis reaction. The PDE activity is reversely correlated with the amount of cAMP left in the reaction and can be converted to the percent activity of an uninhibited control (100%). Thus, IC50 value of inhibitor can be obtained by plotting inhibitor concentration against PDE activity at that concentration.
For orientation: Time-resolved FRET reads energy transfer from a long-lived donor to a nearby acceptor.
With `O=c1c2c(N3CCC(F)(F)CC3)cccc2ccn1C1CC1c1ccc2ccccc2n1` (single isomer, unassigned) [Example 260, anti (−) 8-(4,4-difluoropiperidin-1-yl)-2-(2-(quinolin-2-yl)cyclopropyl)isoquinolin-1(2H)-one], the IC50 was below 100 nM.

As for `COc1cnccc1-c1cccc2cnn(CCc3cn4ccccc4n3)c(=O)c12` [Example 167, 2-[2-(Imidazo[1,2-a]pyridin-2-yl)ethyl]-8-(3-methoxypyridin-4-yl)phthalazin-1(2H)-one], the IC50 lay in the range of 200 to 500 nM. On to `O=c1c2c(NC3CCOC3)cccc2cnn1CCc1cn2ccccc2n1` (centres unmarked) [compound 391, 2-[2-(imidazo[1,2-a]pyridin-2-yl)ethyl]-8-(tetrahydrofuran-3-ylamino)phthalazin-1(2H)-one], for which the IC50 was below 100 nM. On to `O=c1c2c(-c3ccncc3)csc2ccn1C1CC1c1ccc2ccccc2n1` (single isomer, unassigned) [293a], for which the IC50 was below 100 nM. With `Cc1cnc(CCn2ncc3scc(-c4ccncc4)c3c2=O)c(C)c1` [compound 321, 5-[2-(3,5-dimethylpyridin-2-yl)ethyl]-3-(pyridin-4-yl)thieno[2,3-d]pyridazin-4(5H)-one], the IC50 is 100 to 200 nM. Take `COc1cccc(-c2cccc3cnn(CCc4ccc5ccccc5n4)c(=O)c23)c1` [Example 113, 8-(3-Methoxyphenyl)-2-[2-(quinolin-2-yl)ethyl]phthalazin-1(2H)-one]: the IC50 was in the range of 100 to 200 nM. Turning to `O=c1c2c(-c3ccoc3)cccc2cnn1CCc1ccc2ccccc2n1` [Example 127, 8-(Furan-3-yl)-2-[2-(quinolin-2-yl)ethyl]phthalazin-1(2H)-one], the IC50 is below 100 nM.

With `O=c1c2c(-c3ccc4[nH]ncc4c3)csc2cnn1CCc1ccc2ccccc2n1` [Example 87, 3-(1H-indazol-5-yl)-5-[2-(quinolin-2-yl)ethyl]thieno[2,3-d]pyridazin-4(5H)-one], the IC50 was below 100 nM. As to `O=c1c2c(N3CCOCC3)cccc2ccn1C1CC1c1ccc2ccccc2n1` (single isomer, unassigned) [Example 246b, anti (−) 8-morpholino-2-(2-(quinolin-2-yl)cyclopropyl)isoquinolin-1(2H)-one], the IC50 was below 100 nM.

For the molecule `O=c1c2c(-c3ccccc3)cccc2cnn1CCc1ccc2ccccc2n1` [Example 159, 8-Phenyl-2-[2-(quinolin-2-yl)ethyl]phthalazin-1(2H)-one], the IC50 is below 100 nM. As to `O=c1c2c(-c3cncnc3)csc2cnn1CCc1ccc2ccccc2n1` [Example 37, 3-(pyrimidin-5-yl)-5-[2-(quinolin-2-yl)ethyl]thieno[2,3-d]pyridazin-4(5H)-one], the IC50 was below 100 nM. To `O=c1c2cccc(N3CCOCC3)c2cnn1CCc1ccc2ccccc2n1` [compound 397, hydrochloride] belongs below 100 nM; to `Cc1cc2ccccc2nc1CCn1ccc2scc(-c3ccncc3)c2c1=O` [compound 306, 5-[2-(3-methylquinolin-2-yl)ethyl]-3-(pyridin-4-yl)thieno[3,2-c]pyridin-4(5H)-one], below 100 nM; to `O=c1c2cccc(-c3ccncc3)c2cnn1CCc1nc2ccccc2[nH]1` [compound 398, 2-[2-(1H-benzimidazol-2-yl)ethyl]-5-(pyridin-4-yl)phthalazin-1(2H)-one], 100 to 200 nM. Turning to `O=c1c2c(-c3ccnc(F)c3)csc2ccn1C1CC1c1ccc2cc(F)ccc2n1` (centres unmarked) [compound 280], the IC50 is below 100 nM. Turning to `O=c1c2c(-c3ccncc3)ccnc2cnn1[C@@H]1C[C@H]1c1ccc2ccccc2n1` (relative stereo) [Example 277, anti 4-(pyridin-4-yl)-6-(2-(quinolin-2-yl)cyclopropyl)pyrido[2,3-d]pyridazin-5(6H)-one], the IC50 is below 100 nM.

As for `O=c1c2c(-c3ccnc(F)c3)cccc2ccn1[C@@H]1C[C@H]1c1ccc2ccccc2n1` (relative stereo) [Example 243, anti 8-(2-fluoropyridin-4-yl)-2-(2-(quinolin-2-yl)cyclopropyl)isoquinolin-1(2H)-one], the IC50 is below 100 nM. As for `O=c1c2c(-c3cncnc3)cccc2ccn1[C@@H]1C[C@H]1c1ccc2ccccc2n1` (racemic) [Example 240, anti 8-(pyrimidin-5-yl)-2-(2-(quinolin-2-yl)cyclopropyl)isoquinolin-1(2H)-one], the IC50 is below 100 nM. To `O=c1c2c(N3CCC(O)CC3)cccc2cnn1CCc1cn2ccccc2n1` [compound 341, 8-(4-hydroxypiperidin-1-yl)-2-[2-(imidazo[1,2-a]pyridin-2-yl)ethyl]phthalazin-1(2H)-one] belongs below 100 nM; to `O=c1c2c(-c3ccc4c(c3)OCO4)csc2cnn1CCc1ccc2ccccc2n1` [Example 54, 3-(1,3-benzodioxol-5-yl)-5-[2-(quinolin-2-yl)ethyl]thieno[2,3-d]pyridazin-4(5H)-one], 100 to 200 nM; to `O=c1c2c(-c3ccncc3)csc2ccn1C1CC1c1ccc2ccccc2n1` (centres unmarked) [compound 293], below 100 nM. As to `Cn1cc(-c2cccc3ccn([C@@H]4C[C@H]4c4ccc5ccccc5n4)c(=O)c23)cn1` (relative stereo) [Example 241, anti 8-(1-methyl-1H-pyrazol-4-yl)-2-(2-(quinolin-2-yl)cyclopropyl)isoquinolin-1(2H)-one], the IC50 is below 100 nM. With `O=c1c2c(-c3ccncc3)csc2cnn1CCc1cnc2ccccc2n1` [compound 311, hydrochloride], the IC50 lay within 100 to 200 nM.

Regarding `COc1cc(OC)cc(-c2cccc3cnn(CCc4ccc5ccccc5n4)c(=O)c23)c1` [Example 152, 8-(3,5-Fimethoxyphenyl)-2-[2-(quinolin-2-yl)ethyl]phthalazin-1(2H)-one], the IC50 lay in the range of 200 to 500 nM. For the molecule `COc1ncccc1-c1csc2cnn(CCc3ccc4ccccc4n3)c(=O)c12` [Example 38, 3-(2-methoxypyridin-3-yl)-5-[2-(quinolin-2-yl)ethyl]thieno[2,3-d]pyridazin-4(5H)-one], the IC50 was 200 to 500 nM.

For `O=C1Cc2ccc(-c3csc4ccn(CCc5ccc6ccccc6n5)c(=O)c34)cc2N1` [Example 207, 3-(2-Oxoindolin-6-yl)-5-[2-(quinolin-2-yl)ethyl]thieno[3,2-c]pyridin-4(5H)-one], the IC50 was below 100 nM.

In the case of `O=c1c2c(-c3ccncc3)csc2c(F)cn1C1CC1c1ccc2ccccc2n1` (centres unmarked) [compound 279], the IC50 is below 100 nM.

Regarding `O=c1c2c(N3CCC4(COC4)C3)cccc2cnn1CCc1cn2ccccc2n1` [compound 339, 2-[2-(imidazo[1,2-a]pyridin-2-yl)ethyl]-8-(2-oxa-6-azaspiro[3.4]oct-6-yl)phthalazin-1(2H)-one], the IC50 is below 100 nM. `O=c1c2c(N3CCOCC3)csc2ccn1C1CC1c1ccc2ccccc2n1` (centres unmarked) [compound 287]: the IC50 is below 100 nM. As for `O=c1c2c(-c3ccncc3)csc2cnn1CCc1cn2ccc(F)cc2n1` [Example 97, 5-[2-(7-Fluoroimidazo[1,2-a]pyridin-2-yl)ethyl]-3-(pyridin-4-yl)thieno[2,3-d]pyridazin-4(5H)-one], the half-inhibitory concentration (IC50) was below 100 nM. Consider `O=c1c2c(-c3cncc(F)c3)cccc2cnn1CCc1ccc2ccccc2n1` [Example 137, 8-(5-Fluoropyridin-3-yl)-2-[2-(quinolin-2-yl)ethyl]phthalazin-1(2H)-one], for which the half-inhibitory concentration (IC50) was below 100 nM.

As for `N#CC1CCN(c2cccc3ccn([C@@H]4C[C@H]4c4ccc5ccccc5n4)c(=O)c23)CC1` (relative stereo) [Example 247, anti 1-(1-oxo-2-(2-(quinolin-2-yl)cyclopropyl)-1,2-dihydroisoquinolin-8-yl)piperidine-4-carbonitrile], the IC50 is below 100 nM. Consider `O=c1c2c(-c3ccncc3)cccc2cnn1CCc1ccc2ccccc2n1` [Example 98, 8-(Pyridin-4-yl)-2-[2-(quinolin-2-yl)ethyl]phthalazin-1(2H)-one], for which the half-maximal inhibitory concentration (IC50) is below 100 nM. As for `O=c1c2c(-c3cccnc3)csc2ccn1CCc1ccc2cc(F)ccc2n1` [compound 308, hydrochloride], the IC50 is below 100 nM. `O=c1c2c(-c3cc(F)ccc3F)cccc2cnn1CCc1ccc2ccccc2n1` [Example 153, 8-(2,5-Difluorophenyl)-2-[2-(quinolin-2-yl)ethyl]phthalazin-1(2H)-one]: the IC50 lay within 100 to 200 nM. To `O=c1c2c(NCC3COC3)cccc2cnn1CCc1cn2ccccc2n1` [compound 383, 2-[2-(imidazo[1,2-a]pyridin-2-yl)ethyl]-8-[(oxetan-3-ylmethyl)amino]phthalazin-1(2H)-one] belongs below 100 nM; to `O=c1c2c(-c3ccncc3)cccc2ccn1C1CC1c1ccc2ccccc2n1` (single isomer, unassigned; (+)) [Example 222a, (+) 8-(pyridin-4-yl)-2-(2-(quinolin-2-yl)cyclopropyl)isoquinolin-1(2H)-one], below 100 nM; to `O=c1c2c(-c3ccncc3)cccc2c(-c2ccncc2)nn1CCc1cn2ccccc2n1` [compound 367, 2-[2-(imidazo[1,2-a]pyridin-2-yl)ethyl]-4,8-di(pyridin-4-yl)phthalazin-1(2H)-one], below 100 nM.

The IC50 is the concentration needed to halve the response being measured.
